Experimental data taken from patent publication US6218396A, “Substituted pyridino arylpiperazines useful in the treatment of benign prostatic hyperplasia” (Orth-McNeil Pharmaceutical, Inc., priority 1999, dated 2001).
pIC50: −log10 of the molar value.

biological target: T1, α1a-AR (Homo sapiens, UniProt P35348); experiment: receptor binding assay, [125I]-HEAT, membranes of COS cells expressing α1a-AR; conditions: [125I]-HEAT 50 pM, human α1a-AR in COS cell membranes; unit 'nanomolar'
T1 construct: expressed in transfected cells; host or cells: COS cells (pcDNA3, transient DEAE-dextran transfection; membranes)
T1 sequence (P35348 1-466): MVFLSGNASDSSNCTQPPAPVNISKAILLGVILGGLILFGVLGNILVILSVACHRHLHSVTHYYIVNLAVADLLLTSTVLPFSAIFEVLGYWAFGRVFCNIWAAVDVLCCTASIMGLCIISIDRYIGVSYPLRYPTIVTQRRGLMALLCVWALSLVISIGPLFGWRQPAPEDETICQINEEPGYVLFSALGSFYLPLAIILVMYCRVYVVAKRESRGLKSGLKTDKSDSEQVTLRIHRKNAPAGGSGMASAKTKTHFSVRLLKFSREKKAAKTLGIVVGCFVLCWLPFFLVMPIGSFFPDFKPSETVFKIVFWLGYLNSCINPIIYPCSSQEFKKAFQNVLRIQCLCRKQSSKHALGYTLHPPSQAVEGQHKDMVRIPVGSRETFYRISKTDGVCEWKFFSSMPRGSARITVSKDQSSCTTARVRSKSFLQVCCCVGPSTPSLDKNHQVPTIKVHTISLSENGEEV
Text: (§1) The DNA sequences of the three cloned human α1-AR subtypes have been published. […] We used published DNA sequence information to design primers for use in RT-PCR amplification of each subtype to obtain cloned cDNAs. Human poly A+ RNA was obtained from commercially available sources and included hippocampus and prostate samples, sources which have been cited in the literature. For the primary screen a radio ligand binding assay was used which employed membrane preparations from cells expressing the individual cloned receptor cDNAs. Radiolabeled ligands with binding activity on all three subtypes (non-selective) are commercially available ([125I]-HEAT, [3H]-prazosin).
(§2) Each α1 receptor subtype was cloned from poly A+ RNA by the standard method of reverse transcription-polymerase chain reaction (RT-PCR). The following sources of polyA+ RNA were used for the cloning of the α1 receptor subtypes: α1a -AR, human hippocampus and prostate, α1b -AR, human hippocampus, α1d -AR, human hippocampus. The resulting cDNAs were cloned into the pcDNA3 mammalian expression vector (Invitrogen Corp., San Diego Calif.). Each DNA was sequenced for verification and to detect any possible mutations introduced during the amplification process. Any deviation in sequence from the published consensus for each receptor subtype was corrected by site-directed mutagenesis.
(§3) The three α1-AR subtypes (a, b, d) were transfected into COS cells using a standard DEAE-dextran procedure with a chloroquine shock. In this procedure, each tissue culture dish (100 mm) was inoculated with 3.5×10^6 cells and transfected with 10 μg of DNA. Approximately 72 hours post-transfection, the cells were harvested and COS membranes were prepared. Transfected COS cells from 25 plates (100 mm) were scraped and suspended in 15 mL of TE buffer (50 mM Tris-HCl, 5 mM EDTA, pH7.4). The suspension was disrupted with a homogenizer. It was then centrifuged at 1000×g for 10 minutes at […]. The supernatant was centrifuged at 34,500×g for 20 minutes at 4° C. The pellet was resuspended in 5 mL TNE buffer (50 mM Tris-HCl, 5 mM EDTA, 150 mM NaCl, pH7.4). The resulting membrane preparation was aliquoted and stored at -70° C. The protein concentration was determined following membrane solubilization with TritonX-100.
(§4) The ability of each compound to bind to each of the α1-AR subtypes was assessed in a receptor binding assay. [125I]-HEAT, a non-selective α1-AR ligand, was used as the radiolabeled ligand. Each well of a 96-well plate received: 140 μL TNE, 25 μL [125I]-HEAT diluted in TNE (50,000 cpm; final concentration 50 pM), 10 μL test compound diluted in DMSO (final concentration 1 pM-10 μM), […] COS cell membrane preparation expressing one of the three α1-AR subtypes (0.05-0.2 mg membrane protein). The plate was incubated for 1 hour at room temperature and the reaction mixtures were filtered through a Packard GF/C Unifilter filter plate. The filter plate was dried for 1 hour in a vacuum oven. Scintillation fluid ([…]) was added to each well, and the filter plate was counted in a Packard Topcount scintillation counter. Data was analyzed using GraphPad Prism software.

pIC50	Structure (SMILES)
8.96	Cc1ccccc1Oc1ncccc1C(=O)NCC(O)CN1CCN(c2ccccc2OC(C)C)CC1 (stereo not shown) [Compound 39]
8.77	COc1ccccc1Oc1ncccc1C(=O)NCC(O)CN1CCN(c2ccccc2OC(C)C)CC1 (stereo not shown) [Compound 40]
9.28	Cc1ccc(Oc2ncccc2C(=O)NCC(O)CN2CCN(c3ccccc3OC(C)C)CC2)cc1 (stereo not shown) [Compound 41]
9.00	CC(C)Oc1ccccc1N1CCN(CC(O)CNC(=O)c2cccnc2Oc2ccc(Cl)cc2)CC1 (stereo not shown) [Compound 42]
8.70	CC(C)Oc1ccccc1N1CCN(CC(O)CNC(=O)c2cccnc2Sc2ccccc2)CC1 (stereo not shown) [Compound 43]

More lines, now with the values behind:

Structure (SMILES)	pIC50
CC(C)Oc1ccccc1N1CCN(CC(O)CNC(=O)c2cccnc2Nc2ccccc2)CC1 (stereo not shown) [Compound 31]	7.60
COc1ccccc1N1CCN(CC(O)CNC(=O)c2cccnc2Oc2ccccc2)CC1 (stereo not shown) [Compound 32]	7.52
CC(C)Oc1ccccc1N1CCN(CC(O)CNC(=O)c2cccnc2Oc2ccc(C(C)(C)C)cc2)CC1 (stereo not shown) [Compound 33]	8.48
CCOc1ccccc1N1CCN(CC(O)CNC(=O)c2cccnc2Oc2ccccc2)CC1 (stereo not shown) [Compound 34]	8.04
CC(C)Oc1ccccc1N1CCN(C[C@H](O)CNC(=O)c2cccnc2Oc2ccccc2)CC1 [Compound 35]	7.99
CC(C)Oc1ccccc1N1CCN(CC(O)CNC(=O)c2cccnc2Oc2ccc(F)cc2)CC1 (stereo not shown) [Compound 36]	8.82
CC(C)Oc1ccccc1N1CCN(CC(O)CNC(=O)c2cccnc2Oc2cccc(Cl)c2)CC1 (stereo not shown) [Compound 37]	9.04
CC(C)Oc1ccccc1N1CCN(CC(O)CNC(=O)c2cccnc2Oc2cccc(N(C)C)c2)CC1 (stereo not shown) [Compound 38]	8.70

biological target: T2, α1b-AR (Homo sapiens, UniProt P35368); experiment: receptor binding assay, [125I]-HEAT, membranes of COS cells expressing α1b-AR; conditions: [125I]-HEAT 50 pM, human α1b-AR in COS cell membranes; unit 'nanomolar'
T2 construct: expressed in transfected cells; host or cells: COS cells (pcDNA3, transient DEAE-dextran transfection; membranes)
T2 sequence (P35368 1-520): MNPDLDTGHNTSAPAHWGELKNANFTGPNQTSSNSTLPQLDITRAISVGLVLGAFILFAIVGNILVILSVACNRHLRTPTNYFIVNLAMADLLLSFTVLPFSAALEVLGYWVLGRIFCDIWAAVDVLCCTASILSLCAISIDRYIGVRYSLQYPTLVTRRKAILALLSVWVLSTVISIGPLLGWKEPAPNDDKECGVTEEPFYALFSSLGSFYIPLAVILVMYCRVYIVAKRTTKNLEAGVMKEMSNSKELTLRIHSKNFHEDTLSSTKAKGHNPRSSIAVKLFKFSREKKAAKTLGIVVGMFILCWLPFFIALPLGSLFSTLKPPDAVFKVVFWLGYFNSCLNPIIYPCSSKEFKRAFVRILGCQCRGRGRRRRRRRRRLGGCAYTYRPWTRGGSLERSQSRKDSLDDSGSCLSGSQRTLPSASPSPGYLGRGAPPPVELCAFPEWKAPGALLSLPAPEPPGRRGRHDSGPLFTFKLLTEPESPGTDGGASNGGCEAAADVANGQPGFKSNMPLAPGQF
Text: as §1, §2, §3, §4

pIC50	Structure (SMILES)
6.14	Cc1ccccc1Oc1ncccc1C(=O)NCC(O)CN1CCN(c2ccccc2OC(C)C)CC1 (stereo not shown) [Compound 39]
6.24	COc1ccccc1Oc1ncccc1C(=O)NCC(O)CN1CCN(c2ccccc2OC(C)C)CC1 (stereo not shown) [Compound 40]
6.03	Cc1ccc(Oc2ncccc2C(=O)NCC(O)CN2CCN(c3ccccc3OC(C)C)CC2)cc1 (stereo not shown) [Compound 41]
6.08	CC(C)Oc1ccccc1N1CCN(CC(O)CNC(=O)c2cccnc2Oc2ccc(Cl)cc2)CC1 (stereo not shown) [Compound 42]
5.91	CC(C)Oc1ccccc1N1CCN(CC(O)CNC(=O)c2cccnc2Sc2ccccc2)CC1 (stereo not shown) [Compound 43]

Second part, the compound before the results:

Structure (SMILES)	pIC50
CC(C)Oc1ccccc1N1CCN(CC(O)CNC(=O)c2cccnc2Nc2ccccc2)CC1 (stereo not shown) [Compound 31]	6.13
COc1ccccc1N1CCN(CC(O)CNC(=O)c2cccnc2Oc2ccccc2)CC1 (stereo not shown) [Compound 32]	5.80
CC(C)Oc1ccccc1N1CCN(CC(O)CNC(=O)c2cccnc2Oc2ccc(C(C)(C)C)cc2)CC1 (stereo not shown) [Compound 33]	< 5.70
CCOc1ccccc1N1CCN(CC(O)CNC(=O)c2cccnc2Oc2ccccc2)CC1 (stereo not shown) [Compound 34]	6.88
CC(C)Oc1ccccc1N1CCN(C[C@H](O)CNC(=O)c2cccnc2Oc2ccccc2)CC1 [Compound 35]	6.05
CC(C)Oc1ccccc1N1CCN(CC(O)CNC(=O)c2cccnc2Oc2ccc(F)cc2)CC1 (stereo not shown) [Compound 36]	5.93
CC(C)Oc1ccccc1N1CCN(CC(O)CNC(=O)c2cccnc2Oc2cccc(Cl)c2)CC1 (stereo not shown) [Compound 37]	6.02
CC(C)Oc1ccccc1N1CCN(CC(O)CNC(=O)c2cccnc2Oc2cccc(N(C)C)c2)CC1 (stereo not shown) [Compound 38]	6.01

biological target: T3, α1d-AR (Homo sapiens, UniProt P25100); experiment: receptor binding assay, [125I]-HEAT, membranes of COS cells expressing α1d-AR; conditions: [125I]-HEAT 50 pM, human α1d-AR in COS cell membranes; unit 'nanomolar'
T3 construct: expressed in transfected cells; host or cells: COS cells (pcDNA3, transient DEAE-dextran transfection; membranes)
T3 sequence (P25100 1-572): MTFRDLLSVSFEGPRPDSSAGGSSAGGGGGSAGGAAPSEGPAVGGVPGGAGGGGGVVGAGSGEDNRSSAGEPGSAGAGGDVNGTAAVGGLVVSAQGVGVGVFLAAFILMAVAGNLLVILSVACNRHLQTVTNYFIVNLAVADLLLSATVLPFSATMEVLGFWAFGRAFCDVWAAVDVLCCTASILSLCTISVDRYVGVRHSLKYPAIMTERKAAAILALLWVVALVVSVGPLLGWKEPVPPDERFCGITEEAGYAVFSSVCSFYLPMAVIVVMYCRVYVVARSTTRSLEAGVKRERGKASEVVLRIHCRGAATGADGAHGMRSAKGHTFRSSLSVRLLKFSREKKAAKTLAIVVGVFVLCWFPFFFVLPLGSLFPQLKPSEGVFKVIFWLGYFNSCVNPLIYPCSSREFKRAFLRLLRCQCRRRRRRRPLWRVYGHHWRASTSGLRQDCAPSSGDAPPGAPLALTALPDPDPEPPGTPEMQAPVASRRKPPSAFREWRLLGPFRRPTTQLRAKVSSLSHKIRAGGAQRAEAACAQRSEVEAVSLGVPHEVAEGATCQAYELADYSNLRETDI
Text: as §1, §2, §3, §4

pIC50	Structure (SMILES)
8.77	Cc1ccccc1Oc1ncccc1C(=O)NCC(O)CN1CCN(c2ccccc2OC(C)C)CC1 (stereo not shown) [Compound 39]
8.66	COc1ccccc1Oc1ncccc1C(=O)NCC(O)CN1CCN(c2ccccc2OC(C)C)CC1 (stereo not shown) [Compound 40]
7.68	Cc1ccc(Oc2ncccc2C(=O)NCC(O)CN2CCN(c3ccccc3OC(C)C)CC2)cc1 (stereo not shown) [Compound 41]
7.13	CC(C)Oc1ccccc1N1CCN(CC(O)CNC(=O)c2cccnc2Oc2ccc(Cl)cc2)CC1 (stereo not shown) [Compound 42]
7.15	CC(C)Oc1ccccc1N1CCN(CC(O)CNC(=O)c2cccnc2Sc2ccccc2)CC1 (stereo not shown) [Compound 43]

The next lines start with the compound.

Structure (SMILES)	pIC50
CC(C)Oc1ccccc1N1CCN(CC(O)CNC(=O)c2cccnc2Nc2ccccc2)CC1 (stereo not shown) [Compound 31]	7.60
COc1ccccc1N1CCN(CC(O)CNC(=O)c2cccnc2Oc2ccccc2)CC1 (stereo not shown) [Compound 32]	6.83
CC(C)Oc1ccccc1N1CCN(CC(O)CNC(=O)c2cccnc2Oc2ccc(C(C)(C)C)cc2)CC1 (stereo not shown) [Compound 33]	7.11
CCOc1ccccc1N1CCN(CC(O)CNC(=O)c2cccnc2Oc2ccccc2)CC1 (stereo not shown) [Compound 34]	6.69
CC(C)Oc1ccccc1N1CCN(C[C@H](O)CNC(=O)c2cccnc2Oc2ccccc2)CC1 [Compound 35]	6.50
CC(C)Oc1ccccc1N1CCN(CC(O)CNC(=O)c2cccnc2Oc2ccc(F)cc2)CC1 (stereo not shown) [Compound 36]	6.83
CC(C)Oc1ccccc1N1CCN(CC(O)CNC(=O)c2cccnc2Oc2cccc(Cl)c2)CC1 (stereo not shown) [Compound 37]	6.74
CC(C)Oc1ccccc1N1CCN(CC(O)CNC(=O)c2cccnc2Oc2cccc(N(C)C)c2)CC1 (stereo not shown) [Compound 38]	7.25

test system: 5α-reductase; experiment: not given; conditions: cited from earlier work

Structure (SMILES)	inhibition of 5α-reductase (in words)
CC(C)(C)NC(=O)[C@H]1CC[C@H]2[C@@H]3CC[C@H]4NC(=O)C=C[C@]4(C)[C@H]3CC[C@]12C [finasteride]	potent 5α-reductase inhibitor

test system: symptomatic BPH; experiment: not given; conditions: human, in vivo; cited from earlier work

Structure (SMILES)	effectiveness in treating symptomatic BPH (in words)	serum and tissue concentrations of dihydrotestosterone (in words)	time for effects to become evident
CC(C)(C)NC(=O)[C@H]1CC[C@H]2[C@@H]3CC[C@H]4NC(=O)C=C[C@]4(C)[C@H]3CC[C@]12C [finasteride]	only moderately effective	marked decrease	6-12 months
